Assay results from patent US20100093642A1, “NOVEL POLYPEPTIDES” (priority 2006, published 2010).
Residues, ends and D or L forms follow the SMILES beside them. No end group written: not given here.

Key:
[1] = test system: Salmonella enterica serovar typhimurium (ATCC 14028); test: Bacterial cell viability, lux luminescence and OD600, with or without LPS; assay type: cell-based; details: co-incubation with 2.5 μM Aeromonas salmonicida LPS
Description: To evaluate the effect of antimicrobial peptides on the viability of bacteria in a fast and reliable manner we used the lux CDABE operon from Photorhabdus luminescens as a reporter system in gram negative test bacteria and the modified luxABCDE operon in S. aureus (Vesterlund et al. 2004). Bacterial bioluminescence is directly dependent on metabolic activity, since reduction equivalents are needed to drive light emission. Any form of interruption of bacterial cell integrity or metabolism will therefore be detected as a reduction in light emission.
For the assay we used S. aureus (RN4220), E. coli K-12 and Salmonella enterica serovar typhimurium (ATCC 14028) transformed with the respective lux-operon containing plasmids (Vesterlund et al. 2004).
For each experiment a fresh colony was picked from Luria-Bertani plates supplemented with 10 μg/ml of erythromycin in case of S. aureus and with 100 μg/ml of ampicillin in case of E. coli and S. enterica serovar Typhimurium. Each colony was suspended in 5 ml of Müller-Hinton medium with appropriate antibiotics. The culture was incubated over night at 37° C. in a shaking incubator. The next morning 0.5 ml of this culture was transferred to 30 ml fresh MH medium in an Erlenmeyer-flask supplemented with the respective antibiotic. The flask was incubated (200 rpm shaking; 37° C.) until an OD600 of 0.5-0.8 was reached. The culture was then diluted to an OD600 of about 0.02-0.03 before transfer to the 96 well opaque plates with optical bottom (Packard ViewPlate) used for the assay.
The synthesized peptides were dissolved in water and aliquots frozen at −18° C. until use. Twofold dilutions of test peptides (final concentrations ranging from 0.31 to 80 μM) were directly prepared in 96 well microtiter plates in a volume of 10 μl in water. 90 μl is of indicator bacteria in MH medium were added directly to the prepared and pre-warmed (30 minutes at 37° C.) plate before starting the measurement in a Victor multiplate reader (Perkin Elmer) at 37° C. Both OD600 and luminescence in counts per second (cps) were followed over 5 hours in measuring intervals of 5 minutes. The plates where shaken before each measurement (20 sec.; 5 mm orbital shaking; 10 sec waiting). The growth curves and light emission curves were drawn and evaluated to determine the MIC for each indicator strain. The MIC was defined as the concentration of test compound causing more than 50% reduction in bioluminescence (cps) or optical density (OD600) after 5 hours, compared to the growth control. Cecropin P1 was used as positive control. The results (table 14a-b) confirm the results obtained in example 2, showing a pronounced antibacterial effect of the longest peptide fragments. […] The partial peptides P17 HC (1-20), both bromated and unbromated, inhibit growth only in higher concentrations.
A second plate with an otherwise similar setup (as described for the luminescence assay in example 3) was prepared, but with addition of Aeromonas salmonicida LPS to the peptide dilutions before pre-warming. The LPS end concentration in each well was approximately 2.5 μM.

[2] = test system: THP-1 cells; test: in vitro; assay type: cell-based, human
Description: The toxicity of test peptides on THP-1 cells was measured using the MIT method (Mosmann, 1983), with minor modifications. To induce monocyte-macrophage differentiation, THP-1 cells were cultured in 96-well culture plates (10^6 cells/well) in a volume of 100 μl RPMI 1640 medium, containing 50 ng/ml PMA (which is known to induce the maturation of monocytes) and incubated in a humidified atmosphere of 5% CO2 at 37° C. for 48 hours. The medium was then removed and the cells were washed with PBS, added 100 μl fresh medium (without PMA) and incubated for another 24 hours. Medium was removed and the adherent macrophages were treated with 100 μl of peptide solution (concentrations ranging from 0 to 800 μg/ml), diluted in RPMI-1640 assay medium without FBS. After incubation at 37° C. for 1 hour, the cells were added LPS (0.1 μg/ml) and further incubated for 4 hours. Cells treated with Triton X-100 (1%) were used as positive control (100% killing) whereas cells plus medium only were used as negative control. Following the incubation period, 10 μl MTT (5 mg/ml) dissolved in phosphate-buffered saline (PBS) was added to each well, and the plate was further incubated for 2 hours. A volume of 70 μl of the supernatant was then removed and 100 μl acid alcohol (0.04 M HCl in isopropanol) added to each well to dissolve the dark blue crystals. The plate was placed on a shaker for 1 hour at room temperature and read spectrophotometrically at 595 nm in a microtiter plate reader (DTX880 Multimode Detector, Beckman Coulter). Cell survival (%) was then determined from the ΔA595 nm relative to negative control (100% living cells) and expressed as 50% inhibitory concentration (IC50). The IC50 values were estimated from the dose-response curves, which were obtained by averaging at least 3 parallel experiments.

| Molecule | MIC, more than 50% reduction in optical density, S. enterica, P + LPS ([1]; OD600, 5 hours) [µM] | MIC, more than 50% reduction in luminescence, S. enterica, P + LPS ([1]; luminescence (cps), 5 hours) [µM] | Toxicity to THP-1 cells TC50 [2] |
| --- | --- | --- | --- |
| CC[C@H](C)[C@H](NC(=O)CNC(=O)[C@H](CO)NC(=O)[C@H](CCCCN)NC(=O)[C@@H](NC(=O)[C@H](C)NC(=O)[C@H](Cc1c[nH]cn1)NC(=O)[C@H](CO)NC(=O)[C@@H](NC(=O)[C@H](CCCCN)NC(=O)[C@H](Cc1c[nH]cn1)NC(=O)[C@H](Cc1ccccc1)NC(=O)[C@@H](NC(=O)[C@H](CCCCN)NC(=O)[C@H](CCCCN)NC(=O)[C@H](Cc1ccccc1)NC(=O)C(Cc1c[nH]c2ccc(Br)cc12)NC(=O)CN)[C@@H](C)O)C(C)C)C(C)C)C(=O)N[C@@H](Cc1c[nH]cn1)C(=O)N[C@@H](C)C(=O)O (stereo partly drawn) [P17 HC-Br (1-20)] (HELM PEPTIDE1{G.[O=C(C(Cc1c[nH]c2ccc(Br)cc12)N[*:1])[*:2]].F.K.K.T.F.H.K.V.S.H.A.V.K.S.G.I.H.A}$$$$V2.0; N-terminus and C-terminus assumed) | 10 | 10 |  |
| GWFKKTFHKVSHAVKSGIHA [P17 HC (1-20)] |  |  | —^b |
